Experimental data published in the supplement of paper PMC10949913.
“And” between values parts separate entries of the source, which are not always exact repeats. Identical values can stand only once.

Experiments:
Details in all cases: 48 h
CU-ACC1 [1] = test: AC50 viability; higher = less potent
In short: (§1)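 Luminescence from CellTiter-Glo, read after 48 h, measured three adrenocortical carcinoma cell lines treated in 1,536-well plates with library compounds at 11 concentrations. Values were normalised per plate to vehicle and empty-well controls. The AC50 and area under the curve come from fitted concentration-response curves in inhibitory or non-responding classes only.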

CU-ACC2 [2] = test: AC50 viability; higher = less potent
In short: as §1

NCI-H295R [3] = test: AC50 viability; higher = less potent
In short: as §1

CU-ACC1 [4] = test: area under concentration-response curve (viability) (AUC (a.u.)); higher = less active
In short: as §1

CU-ACC2 [5] = test: as above
In short: as §1

NCI-H295R [6] = test: as above
In short: as §1

Row | Structure (SMILES) | AC50 viability (CU-ACC1 [1]) | AC50 viability (CU-ACC2 [2]) [µM] | AC50 viability (NCI-H295R [3]) [µM] | area under concentration-response curve (CU-ACC1 [4]) | area under concentration-response curve (CU-ACC2 [5]) | area under concentration-response curve (NCI-H295R [6])
1 | CC[C@@H]1C(=O)N(C)c2cnc(Nc3ccc(C(=O)NC4CCN(C)CC4)cc3OC)nc2N1C1CCCC1 | 20.9 µM | 16.6 | 16.6 | 412 | 461 | 404
2 | CNCc1ccc(C)c(NC(=O)c2ccc(Nc3nc(-c4ccccc4)c4ccccc4n3)cc2)c1 | 16.6 µM | 23.5 | 18.6 | 471 | 575 | 521
3 | Cc1n[nH]c2ccc(-c3cncc(OC[C@@H](N)Cc4c[nH]c5ccccc45)c3)cc12 | 1.66 µM | 2.09 | 2.95 | 318 | 360 | 351
4 | CN(C)CCOc1ccc(-c2nc(-c3ccncc3)c(-c3ccc4c(c3)CC/C4=N\O)[nH]2)cc1 | 16.6 µM | 20.9 | 14.8 | 398 | 521 | 440
5 | CN1CCN(c2cc(C(=O)Nc3ccc4c(c3)-c3c(c(C(N)=O)nn3-c3ccc(F)cc3)CC4)c(Cl)cn2)CC1 | 9.34 µM | 20.9 | 10.5 | 427 | 521 | 480
6 | CNCCCC12CCC(c3ccccc31)c1ccccc12 | 23.5 µM | 23.5 | 16.6 | 488 | 564 | 464
7 | O=C(/C=C/c1cccc([S+](=O)([O-])Nc2ccccc2)c1)NO | 3.72 µM | 5.25 | 3.72 | 362 | 429 | 404
8 | CC(C)(Cc1ccc2ccccc2c1)NC[C@@H](O)COc1cccc(Cl)c1C#N | 9.34 µM | 7.42 | 9.34 | 460 | 530 | 480
9 | CCN(CC)CCOC1=CC=C(NC2=NC=C3\C=C(/C(=O)N(C)C3=N2)C4=C(Cl)C=CC=C4Cl)C=C1 | 7.42 µM | 7.42 | 4.17 | 436 | 511 | 461
10 | Cn1cc(-c2ccc([S+](=O)([O-])n3ccc(/C=C/C(=O)Nc4ccccc4N)c3)cc2)cn1 | 13.2 µM | 9.34 | 5.25 | 377 | 464 | 352
11 | CC(C)C1NC(=O)C(NC(=O)C2=C3\N=C\4/C(=C(C)\C(=O)\C(=C4C(=O)NC5C(C)OC(=O)C(C(C)C)N(C)C(=O)CN(C)C(=O)C6CCCN6C(=O)C(NC5=O)C(C)C)N)OC3=C(C)C=C2)C(C)OC(=O)C(C(C)C)N(C)C(=O)CN(C)C(=O)C7CCCN7C1=O (configuration not stated) | 0.0512 µM | 0.00812 | 0.144 | 230 | 152 | 307
12 | N[S+]([O-])(=O)C1=CC=C(NC/2=C/C(=O)C3=CC=CC=C3C2=O)C=C1 | 0.59 µM | 13.2 | 2.35 | 290 | 463 | 403
13 | COc1cc(O)c2c(c1)C1OC1C[C@H](O)[C@H](O)C(=O)/C=C\C[C@H](C)OC2=O (some centres not stated) | 6.61 µM | 16.6 | 14.8 | 429 | 492 | 435
14 | CCCCNc1ncc2c(-c3ccc(F)cc3)nn(C[C@H]3CC[C@H](N)CC3)c2n1 | 14.4 µM | 14.4 | 14.4 | 523 | 611 | 550
15 | COc1cccc2c1C(=O)c1c(O)c3c(c(O)c1C2=O)C[C@@](O)(C(=O)CO)C[C@@H]3O[C@H]1C[C@H](N)[C@H](O[C@H]2CCCCO2)[C@H](C)O1 | 5.25 µM and 9.34 µM | 6.61 | 20.9 | 230 and 410 | 168 and 501 | 435
16 | CCCCCCCCc1ccc(CCC(N)(CO)CO)cc1 | 10.5 µM | 8.33 | 11.8 | 357 | 384 | 395
17 | O=C(/C=C/c1ccc(CN(CCO)CCc2c[nH]c3ccccc23)cc1)NO | 0.332 µM | 0.59 | 1.66 | 293 | 345 | 380
18 | Cc1cccc(Nc2nc(N[C@@H]3CCCC[C@@H]3N)ncc2C(N)=O)c1 | 26.3 µM | 26.3 | 18.6 | 476 | 546 | 496
19 | COCCn1c2c([n+](Cc3cnccn3)c1C)C(=O)c1ccccc1C2=O | 1.66 µM | 0.132 | 3.32 | 246 | 278 | 341
20 | C=CC(=O)Nc1cccc(Sc2nc(Nc3ccc(N4CCN(C)CC4)cc3)ncc2Cl)c1 | 4.68 µM | 4.17 | 4.68 | 342 | 388 | 375
21 | O=C(/C=C/C#Cc1cccc(N[S+](=O)([O-])c2ccccc2)c1)NO | 4.07 µM | 6.45 | 4.56 | 497 | 544 | 542
22 | Cc1cc(C[S+](=O)([O-])c2ccccc2)cc(OCc2ccc(CN3CCC[C@@H]3CO)cc2)c1 | 14.8 µM | 20.9 | 26.3 | 428 | 463 | 425
23 | COCCOc1ccc2c(c1)ncn2-c1ccc2cccc(N3CCC(N)CC3)c2n1 | 16.6 µM | 10.5 | 6.61 | 409 | 370 | 420
24 | CN(C)CCN(C)C(=O)c1ccc(NC(=O)Nc2ccc(-c3nc(N4CCOCC4)c4ccn(CC(F)(F)F)c4n3)cc2)cc1 | 4.68 µM | 3.72 | 5.9 | 307 | 307 | 354
25 | O=C(/C=C\n1cnc(-c2cc(C(F)(F)F)cc(C(F)(F)F)c2)n1)NNc1cnccn1 | 20.9 µM | 11.8 | 13.2 | 319 | 489 | 469
26 | C[S+](=O)([O-])N1CCN(Cc2cc3nc(-c4cccc5[nH]ncc45)nc(N4CCOCC4)c3s2)CC1 | 0.934 µM | 16.6 | 0.661 | 420 | 402 | 406

Row | Structure (SMILES) | AC50 viability (CU-ACC1 [1]) | AC50 viability (CU-ACC2 [2]) [µM] | AC50 viability (NCI-H295R [3]) [µM] | area under concentration-response curve (CU-ACC1 [4]) | area under concentration-response curve (CU-ACC2 [5]) | area under concentration-response curve (NCI-H295R [6])
27 | C=CC(=O)Nc1cccc(Nc2nc(Nc3ccc(NC4CN(CCF)C4)cc3OC)ncc2C(F)(F)F)c1 | 9.34 µM | 14.8 | 8.33 | 398 | 386 | 446
28 | CNC1CCC(N(Cc2cccc(-c3ccncc3)c2)C(=O)c2sc3c(F)ccc(F)c3c2Cl)CC1 (configuration not stated) | 8.33 µM | 9.34 | 9.34 | 443 | 499 | 448
29 | COCCN1CCN(Cc2ccc(-c3n[nH]c4c3C(=O)c3c(NC(=O)NN5CCOCC5)cccc3-4)cc2)CC1 | 0.468 µM | 0.148 | 0.833 | 301 | 295 | 372
30 | CC(=O)NCC(=O)N1[C@@H]2CC[C@H]1c1ccc(Nc3ncc(C(F)(F)F)c(NC4CCC4)n3)cc12 | 18.6 µM | 10.5 | 16.6 | 502 | 443 | 459
31 | CC(C)NC(=O)COc1cccc(-c2nc(Nc3ccc4[nH]ncc4c3)c3ccccc3n2)c1 | 13.2 µM | 3.72 | 9.34 | 481 | 507 | 523
32 | OCCCNc1cc(-c2ccnc(Nc3cccc(Cl)c3)n2)ccn1 | 0.148 µM | 0.0934 | 0.263 | 275 | 307 | 339
33 | O[C@H]1CC[C@@H](Oc2cccc3cnc(Nc4ccc5nc[nH]c5c4)nc23)CC1 | 1.66 µM | 1.32 | 2.63 | 403 | 331 | 409
34 | N=c1c2c(-c3ccccc3)c(-c3ccccc3)n(Cc3ccccc3)c2ncn1[C@H]1CC[C@H](O)CC1 | 18.6 µM | 18.6 | 18.6 | 341 | 531 | 491
35 | O=C1c2c(O)ccc(O)c2C(=O)c2c(NCCNCCO)ccc(NCCNCCO)c21 | 16.6 µM | 9.34 | 14.8 | 458 | 512 | 514
36 | CN(C)C/C=C/C(=O)Nc1ccc(C(=O)Nc2cccc(Nc3ncc(Cl)c(-c4c[nH]c5ccccc45)n3)c2)cc1 | 0.661 µM | 0.332 | 1.48 | 363 | 275 | 406
37 | Cc1cnc(Nc2ccc(CN3CCOCC3)cc2)nc1Nc1cccc([S+](=O)([O-])NC(C)(C)C)c1 | 20.9 µM | 11.8 | 9.34 | 445 | 509 | 492
38 | CCCCCCCOc1ccc(CCC(N)(CO)CO)cc1C(F)(F)F | 14.8 µM | 16.6 | 9.34 | 446 | 553 | 466
39 | CC[S+](=O)([O-])N1CCN(c2ccc(Nc3ncc(C(N)=O)c(NC4CC4)n3)cc2)CC1 | 20.9 µM | 26.3 | 16.6 | 474 | 561 | 499
40 | C=CCNC1=C2C[C@@H](C)C[C@H](OC)[C@H](O)[C@@H](C)/C=C(\C)[C@H](OC(N)=O)[C@@H](OC)/C=C\C=C(/C)C(=O)NC(=CC1=O)C2=O | 10.5 µM | 13.2 | 37.2 | 433 | 418 | 515
41 | CCC1=C2C=C(OC(=O)N3CCC(CC3)N4CCCCC4)C=CC2=NC\5=C1CN6C(=O)\C7=C(/C=C56)[C@@](O)(CC)C(=O)OC7 | 13.2 µM | 2.95 | 13.2 | 382 | 426 | 443
42 | C[N]1C=C(C=N1)C2=CC=C3N=CC\4=C(N(C(=O)\C=C4)C5=CC6=C(CCN6C(=O)C=C)C=C5)C3=C2 | 0.407 µM | 0.723 | 0.723 | 349 | 433 | 399
43 | C[C@H]1COCCN1c1cc(C2([S+](=O)([O-])C3CC3)CC2)nc(-c2ccc(NC(=S)NCCO)cc2)n1 | 0.295 µM | 0.525 | 0.661 | 325 | 394 | 366
44 | Cc1ccc(C(N)=O)cc1Nc1nccc(-c2cn(C(C)C)c3cnccc23)n1 | 20.9 µM | 8.33 | 16.6 | 446 | 530 | 522
45 | COC(=O)Nc1cc(Nc2cc(NC3CC3)c3ncc(C#N)n3n2)c(Cl)c(N2CCN(C)CC2)c1 | 6.61 µM | 6.61 | 2.63 | 466 | 506 | 443
46 | CCN(CC)CCNC(=O)c1c(C)[nH]c(/C=C2/C(=O)Nc3ccc(-c4csc(-c5ccccc5)n4)cc32)c1C | 13.2 µM | 9.34 | 7.42 | 369 | 521 | 453
47 | Cc1c(CN2CCN([S+](C)(=O)[O-])CC2)sc2c(N3CCOCC3)nc(-c3cnc(N)nc3)nc12 | 0.525 µM | 0.468 | 1.18 | 282 | 403 | 333
48 | CN1CCCN(C(=O)c2cccc(-c3ccc(/C=C4/C(=O)Nc5ccc(Cl)cc54)o3)c2)CC1 | 29.5 µM | 23.5 | 20.9 | 392 | 379 | 361
49 | CN(C)c1ccc(C(=O)NCCCCCCC(=O)NO)cc1 | 4.68 µM | 4.17 | 5.25 | 348 | 450 | 444
50 | COc1cccc2c1C(=O)c1c(O)c3c(c(O)c1C2=O)C[C@@](O)(/C(CO)=N/NC(=O)CCCCCN1C(=O)C=CC1=O)C[C@@H]3O[C@H]1C[C@H](N)[C@H](O)[C@H](C)O1 | 20.9 µM | 18.6 | 18.6 | 356 | 539 | 492
51 | c1cc(Nc2cc(C3CC3)n[nH]2)nc(Nc2ccc3nc[nH]c3c2)n1 | 1.05 µM | 0.332 | 7.42 | 419 | 408 | 462
52 | CC(C)[C@H](C(=O)Nc1ccc(C(=O)NO)cc1)c1ccccc1 | 4.17 µM | 5.25 | 2.35 | 308 | 360 | 414
